According to patent US4483868A, “Gastro-protecting activity” (Roussel Uclaf, priority 1980, dated 1984):

Experiments:
[1] = Determination of acute toxicity (LD50, oral, mice); conditions: mouse, in vivo, oral administration
Procedure: (2) Determination of Acute Toxicity
The lethal dose, LD50, of the compounds of Examples 1-8 was evaluated in mice after oral administration.

[2] = test system: ulcers in rats at the stomach level; test: Anti-ulcer activity, Shay method (pylorus ligature in rats); type: in vivo; conditions: oral, about 16 hours after treatment
Text: (1) Determination of Anti-Ulcer Activity
The method used is described by SHAY et al. in Gastroenterology, 5, 43 (1945).
The Shay method consists of inducing ulcers in rats at the stomach level by ligature of the pylorus.
The animals are anesthetized with ether. A longitudinal incision is made about 1 cm below the sternum, the glandular part of the stomach and the duodenum are exposed, and a ligature is placed several mm below the pylorus. The muscular sheet is left as it is, and the skin is sutured with two clips.
As soon as possible afterwards, the animals receive the dispersive or the substance to be studied via the mouth in a volume of 0.5 ml/100 g and are kept without food or drink until sacrificed by carotid bleeding, which takes place about 16 hours after the treatment.
Before removing the stomach, a ligature is placed above the cardia.
The gastric liquid is collected in order to measure the pH.
The stomach is then opened along the major curvature, rinsed with physiological serum, and spread out on millimeter paper to be examined under a binocular magnifier.
The severity of the lesions is evaluated macroscopically and graded from 0 to 4 for each stomach.
The mean intensity of ulcerations is determined for each group of rats, and the protection is calculated by taking the ratio of the mean index of the treated group to the mean index of the control group.
The value of the gastric pH for the treated and control animals are likewise determined.

[3] = Rattus norvegicus, 0.8 mg/kg, read-out: Ulcerations % of protection with respect to controls
[4] = Rattus norvegicus, 4 mg/kg, read-out: Ulcerations % of protection with respect to controls
[5] = Rattus norvegicus, 20 mg/kg, read-out: Ulcerations % of protection with respect to controls
[6] = Rattus norvegicus, 0.4 mg/kg, read-out: Ulcerations % of protection with respect to controls
[7] = Rattus norvegicus, 2 mg/kg, read-out: Ulcerations % of protection with respect to controls
[8] = Rattus norvegicus, 10 mg/kg, read-out: Ulcerations % of protection with respect to controls
[9] = Rattus norvegicus, 50 mg/kg, read-out: Ulcerations % of protection with respect to controls

Row | SMILES | LD50 [1] [mg/kg] | inhibition in vivo at 4 mg/kg [2, 4] [%] | inhibition in vivo at 20 mg/kg [2, 5] [%] | pH of gastric liquid, treated animals ([2]; 4 mg/kg) | pH of gastric liquid, treated animals ([2]; 20 mg/kg) | inhibition in vivo at 2 mg/kg [2, 7] [%] | inhibition in vivo at 10 mg/kg [2, 8] [%] | pH of gastric liquid, treated animals ([2]; 2 mg/kg) | pH of gastric liquid, treated animals ([2]; 10 mg/kg) | also measured
1 | COc1ccc(C(=O)/C=C/C(=O)O)cc1OC [Example 1, (E) 4-(3,4-dimethoxyphenyl)-4-oxo-2-butenoic acid] | ~500 | 83 | 100 | 2.6 | 4.3 |  |  |  |  | inhibition in vivo at 0.8 mg/kg [2, 3]: 0%; pH of gastric liquid, treated animals ([2]; 0.8 mg/kg): 2.9
2 | O=C(O)/C=C/C(=O)c1ccc(Cl)cc1 [Example 2, (E) 4-(4-chlorophenyl)-4-oxo-2-butenoic acid] | ~200 |  |  |  |  |  |  |  |  | inhibition in vivo at 1 mg/kg ([2]; Rattus norvegicus, 1 mg/kg, read-out: Ulcerations % of protection with respect to controls): 0%; inhibition in vivo at 5 mg/kg ([2]; Rattus norvegicus, 5 mg/kg, read-out: Ulcerations % of protection with respect to controls): 57%; inhibition in vivo at 25 mg/kg ([2]; Rattus norvegicus, 25 mg/kg, read-out: Ulcerations % of protection with respect to controls): 100%; pH of gastric liquid, treated animals ([2]; 1 mg/kg): 3.0; pH of gastric liquid, treated animals ([2]; 5 mg/kg): 3.0; pH of gastric liquid, treated animals ([2]; 25 mg/kg): 5.6
3 | O=C(O)/C=C/C(=O)c1ccc(F)cc1 [Example 3, (E) 4-(4-fluorophenyl)-4-oxo-2-butenoic acid] | ~300 |  |  |  |  | 43 | 100 | 2.8 | 4.0 | inhibition in vivo at 0.4 mg/kg [2, 6]: 20%; pH of gastric liquid, treated animals ([2]; 0.4 mg/kg): 3.1
4 | O=C(O)/C=C/C(=O)c1ccc(Cl)c(Cl)c1 [Example 4, (E) 4-(3,4-dichlorophenyl)-4-oxo-2-butenoic acid] | ~500 | 14 | 71 | 3.1 | 4.1 |  |  |  |  | 
5 | O=C(O)/C=C/C(=O)c1ccccc1[N+](=O)[O-] [Example 5, (E) 4-(2-nitrophenyl)-4-oxo-2-butenoic acid] | ~500 | 19 | 100 | 3.3 | 4.3 |  |  |  |  | 
6 | O=C(O)/C=C/C(=O)c1ccc(C(F)(F)F)cc1 [Example 6, (E) 4-(4-trifluoromethylphenyl)-4-oxo-2-butenoic acid] | ~600 | 55 | 67 | 2.3 | 2.8 |  |  |  |  | inhibition in vivo at 0.8 mg/kg [2, 3]: 20%; inhibition in vivo at 100 mg/kg ([2]; Rattus norvegicus, 100 mg/kg, read-out: Ulcerations % of protection with respect to controls): 98%; pH of gastric liquid, treated animals ([2]; 0.8 mg/kg): 1.4; pH of gastric liquid, treated animals ([2]; 100 mg/kg): 6.3
7 | COc1ccc(OC)c(C(=O)/C=C/C(=O)O)c1 [Example 7, (E) 4-(2,5-dimethoxyphenyl)-4oxo-2-butenoic acid] | ~300 |  |  |  |  | 93 | 88 | 2.8 | 3.0 | inhibition in vivo at 0.4 mg/kg [2, 6]: 0%; inhibition in vivo at 50 mg/kg [2, 9]: 100%; pH of gastric liquid, treated animals ([2]; 0.4 mg/kg): 3.0; pH of gastric liquid, treated animals ([2]; 50 mg/kg): 4.2
8 | O=C(O)/C=C/C(=O)c1ccc2c(c1)OCO2 [Example 8, (E) 4-(3,4-methylenedioxyphenyl)-4-oxo-2-butenoic acid] | ~400 |  |  |  |  | 33 | 60 | 3.2 | 3.3 | inhibition in vivo at 50 mg/kg [2, 9]: 100%; pH of gastric liquid, treated animals ([2]; 50 mg/kg): 5.4
